Assay results from patent publication US7999119B2, “Compounds having CRTH2 antagonist activity” (Oxagen Limited, priority 2006, dated 2011).

The compounds below were run on PGD2 induced eosinophil shape change (assay: Human whole blood eosinophil shape change assay). Conditions: Homo sapiens, Eosinophil, 10 nm PGD2-induced eosinophil shape change, human whole blood; read-out: Whole Blood IC50.
Type: cell-based
Method: Human Whole Blood Eosinophil Shape Change Assay
Compounds 1 to 3 were assayed for their effect on PGD2 induced eosinophil shape change and were compared with Comparator Compounds A to G.
Shape Change Assay in Whole Blood
Compounds (1 μl, 200× final concentration) were added directly to 200 μl whole blood, mixed well and incubated for 15 min, 37° C., 5% CO2. After this time, cell shape was fixed by addition of 300 μl Cytofix™ buffer (BD Biosciences), 15 min on ice. 10 ml RBC lysis buffer was added to the fixed cells, incubated 5 min, at room temperature and centrifuged, 300×g for 5 min. Supernatant (containing lysed red cells) was removed and the lysis step was repeated. Leukocytes were resuspended in 250 μl RPMI/10% FCS and shape change analysed by FACS. Eosinophils were gated out based on their autofluorescence and 2000 eosinophil events were counted per sample. Data were analysed in triplicate.
Work on Cc1c(Cc2ccc(S(=O)(=O)c3ccccc3)cc2)c2cc(F)ccc2n1CC(=O)O [Compound C, 2-{5-Fluoro-2-methyl-3-[4-(phenylsulfonyl)benzyl]-1H-indol-1-yl}acetic acid] yielded an IC50 of 273 nM. Work on Cc1c(Cc2ccc(S(=O)(=O)c3ccc(Cl)cc3)cc2)c2cc(F)ccc2n1CC(=O)O [Compound D, 2-{3-[4-(4-chlorophenylsulfonyl)benzyl]-5-fluoro-2-methyl-1H-indol-1-yl}acetic acid] yielded an IC50 of 494 nM. Cc1c(Cc2ccc(S(=O)(=O)c3ccc(F)cc3)cc2)c2cc(F)ccc2n1CC(=O)O [Compound E, 2-{5-Fluoro-3-[4-(4-fluorophenylsulfonyl)benzyl]-2-methyl-1H-indol-1-yl}acetic acid] was tested, and the IC50 was 71 nM. Work on Cc1c(Cc2cccc(S(=O)(=O)c3ccccc3)c2)c2cc(F)ccc2n1CC(=O)O [Compound F, 2-{5-Fluoro-2-methyl-3-[3-(phenylsulfonyl)benzyl]-1H-indol-1-yl}acetic acid] yielded an IC50 of 1500 nM. Cc1c(Cc2cccc(S(=O)(=O)c3ccc(Cl)cc3)c2)c2cc(F)ccc2n1CC(=O)O [Compound G, 2-{3-[3-(4-chlorophenylsulfonyl)benzyl]-5-fluoro-2-methyl-1H-indol-1-yl}acetic acid] gave an IC50 of 4660 nM.
